Assay results reported in the supplement of paper PMC10307832.

Compound: O=c1[nH]cc(F)c(=O)[nH]1 [5-Fluorouracil]
Experiment: relative viability (nuclei count vs DMSO), 5 days (fraction); higher = more cells survive
Outline: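 Five library-drug doses, separated by factors of √10, were pinned into 1536-well plates holding lung cancer cell lines after an overnight stay at 37 °C. Cells were fixed, permeabilised and Hoechst-stained in one step after 5 days without medium change, then imaged at 4×. Viability compares treated-well with vehicle-well nuclei, counted in MetaXpress, as a median across plates. Passing plates had control CV below 25% and at least one doubling.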

UMC-11
relative viability (0.02 µM): 0.952
relative viability (0.2 µM): 0.783
relative viability (0.6325 µM): 0.519
